Laboratory results from US11834453B2, “Substituted pyrimido[5,4-d]pyrimidines as HER2 inhibitors” (Array BioPharma Inc., priority 2020, dated 2023).

Legend:
[1] = biological target: ErbB2 insYVMA (HER2-YVMA, SEQ ID NO: 2) (Homo sapiens, UniProt P04626, INS775YVMA/P1170A); experiment: biochemical; settings: ErbB2 insYVMA enzyme assay; read-out: Assay 1 IC50
[2] = biological target: ErbB2 WT (Homo sapiens (Human), UniProt P04626); experiment: ErbB enzyme assay (CisBio HTRF KinEASE-TK), Assay 2; format: biochemical
Outline: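 Readout is HTRF KinEASE-TK, using Sa-XL665 and cryptate antibody for 1 h at 22 °C, as percent of control between DMSO-only (100) and pre-quenched (0) reactions. The kinase reaction runs 30 min at 22 °C with 1 mM ATP and 250 nM biotinylated TK substrate, in HEPES pH 7.4 with MgCl2 and 2% DMSO.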

[3] = biological target: EGFR (Homo sapiens (Human), UniProt P00533); experiment: ErbB enzyme assay (CisBio HTRF KinEASE-TK), Assay 3; format: biochemical
EGFR, sequence (P00533 25-1210): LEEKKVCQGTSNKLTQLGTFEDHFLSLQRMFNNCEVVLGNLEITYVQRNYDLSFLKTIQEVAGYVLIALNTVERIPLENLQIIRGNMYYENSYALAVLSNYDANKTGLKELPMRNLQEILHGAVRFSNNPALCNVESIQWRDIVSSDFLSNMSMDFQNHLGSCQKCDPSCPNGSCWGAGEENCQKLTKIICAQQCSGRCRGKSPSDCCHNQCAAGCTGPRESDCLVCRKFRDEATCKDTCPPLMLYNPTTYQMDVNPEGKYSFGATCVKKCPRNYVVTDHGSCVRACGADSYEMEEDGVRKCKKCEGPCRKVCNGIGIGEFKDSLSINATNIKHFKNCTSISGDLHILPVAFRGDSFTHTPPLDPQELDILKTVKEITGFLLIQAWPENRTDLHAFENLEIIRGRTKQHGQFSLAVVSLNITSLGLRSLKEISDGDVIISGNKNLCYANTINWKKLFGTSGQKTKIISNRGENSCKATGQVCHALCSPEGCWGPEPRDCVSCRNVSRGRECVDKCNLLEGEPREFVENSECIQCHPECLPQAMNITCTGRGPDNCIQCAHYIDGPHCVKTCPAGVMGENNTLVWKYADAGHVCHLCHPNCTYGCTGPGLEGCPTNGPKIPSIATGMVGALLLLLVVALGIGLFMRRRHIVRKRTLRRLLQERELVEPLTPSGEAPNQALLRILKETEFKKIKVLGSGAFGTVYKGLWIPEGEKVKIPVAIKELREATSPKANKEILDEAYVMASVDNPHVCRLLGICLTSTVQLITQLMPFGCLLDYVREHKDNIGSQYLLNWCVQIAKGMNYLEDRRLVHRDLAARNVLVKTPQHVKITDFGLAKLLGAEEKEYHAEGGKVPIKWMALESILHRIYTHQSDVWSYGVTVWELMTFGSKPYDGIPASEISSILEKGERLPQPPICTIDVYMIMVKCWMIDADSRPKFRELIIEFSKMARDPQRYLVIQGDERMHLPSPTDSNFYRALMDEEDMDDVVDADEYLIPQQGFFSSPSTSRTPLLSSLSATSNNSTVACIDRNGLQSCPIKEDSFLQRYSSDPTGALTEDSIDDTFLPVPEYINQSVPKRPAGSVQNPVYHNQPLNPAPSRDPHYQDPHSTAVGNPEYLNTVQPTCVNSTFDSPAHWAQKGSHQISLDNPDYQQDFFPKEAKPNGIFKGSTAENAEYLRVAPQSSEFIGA
Outline: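 Using a time-resolved FRET read-out, tyrosine phosphorylation of 250 nM biotin substrate at 1 mM ATP (pH 7.4, 10 mM MgCl2, 2% DMSO, 22 °C, 30 min) was quantified against DMSO and pre-quenched controls; IC50 taken at 50% of control.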

[4] = biological target: ErbB2 with Exon 20 YVMA insertion (HER2-YVMA) (Homo sapiens (Human), UniProt P04626, INS775YVMA); experiment: Cellular phosphorylation assay, constitutive ErbB2 phosphorylation (Y1196) in engineered NIH 3T3 cells, Assay 4; format: cell-based
ErbB2 with Exon 20 YVMA insertion (HER2-YVMA), sequence (P04626 other isoform, or with tags, fused parts or gaps ins YVMA behind 775): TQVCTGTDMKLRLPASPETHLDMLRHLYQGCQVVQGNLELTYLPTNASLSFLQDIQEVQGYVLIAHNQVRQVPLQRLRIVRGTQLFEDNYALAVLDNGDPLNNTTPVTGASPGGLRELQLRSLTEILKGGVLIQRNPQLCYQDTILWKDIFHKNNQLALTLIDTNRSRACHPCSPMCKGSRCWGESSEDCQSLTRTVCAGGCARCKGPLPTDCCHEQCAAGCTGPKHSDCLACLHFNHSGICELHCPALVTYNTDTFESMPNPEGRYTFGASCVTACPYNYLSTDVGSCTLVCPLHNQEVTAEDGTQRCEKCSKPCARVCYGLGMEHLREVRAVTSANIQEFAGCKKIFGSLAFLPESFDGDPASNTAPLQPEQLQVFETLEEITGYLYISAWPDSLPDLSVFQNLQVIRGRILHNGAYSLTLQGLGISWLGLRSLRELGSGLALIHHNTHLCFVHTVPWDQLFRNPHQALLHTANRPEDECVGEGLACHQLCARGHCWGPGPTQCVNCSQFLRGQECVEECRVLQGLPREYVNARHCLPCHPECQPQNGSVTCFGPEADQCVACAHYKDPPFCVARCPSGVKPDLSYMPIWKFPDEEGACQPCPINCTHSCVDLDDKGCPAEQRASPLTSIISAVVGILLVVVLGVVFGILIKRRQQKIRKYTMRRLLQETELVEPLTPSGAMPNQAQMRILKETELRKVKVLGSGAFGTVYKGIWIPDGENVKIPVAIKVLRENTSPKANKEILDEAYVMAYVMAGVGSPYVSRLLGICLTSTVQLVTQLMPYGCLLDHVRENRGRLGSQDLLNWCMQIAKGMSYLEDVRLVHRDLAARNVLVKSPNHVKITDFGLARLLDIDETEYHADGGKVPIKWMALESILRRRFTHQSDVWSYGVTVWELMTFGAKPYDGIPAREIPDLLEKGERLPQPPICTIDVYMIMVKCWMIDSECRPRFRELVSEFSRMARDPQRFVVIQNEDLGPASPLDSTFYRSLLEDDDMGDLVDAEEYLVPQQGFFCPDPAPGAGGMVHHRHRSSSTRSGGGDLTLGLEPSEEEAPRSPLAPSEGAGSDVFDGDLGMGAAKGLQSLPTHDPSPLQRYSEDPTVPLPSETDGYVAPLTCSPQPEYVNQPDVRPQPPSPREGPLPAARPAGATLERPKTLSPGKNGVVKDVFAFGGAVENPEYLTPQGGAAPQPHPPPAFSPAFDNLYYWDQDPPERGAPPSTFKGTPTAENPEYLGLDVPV
Outline: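 In-cell Western in NIH 3T3 cells carrying ErbB2 exon 20 YVMA insertion, with no ligand stimulation. One hour compound exposure at 37 °C before fixation and anti-pY1196 plus GAPDH staining with dual-wavelength fluorescence. IC50 derived after GAPDH normalization.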

[5] = biological target: EGFR wild type (EGFR WT) (Homo sapiens (Human), UniProt P00533); experiment: Cellular phosphorylation assay, EGF-stimulated EGFR phosphorylation in engineered NIH 3T3 cells, Phospho-EGFR DuoSet IC ELISA, Assay 5; format: cell-based
EGFR wild type (EGFR WT), sequence (P00533 25-1210): as the sequence (P00533 25-1210) above
Outline: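 Phospho-EGFR ELISA on lysates of engineered NIH 3T3 EGFR WT cells, IC50 derived from concentration curves. Cells plated at 20,000/well overnight, given compound dilutions 1 h at 37 °C, then rEGF 100 ng/ml for a further 10 min before lysis.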

ErbB2 insYVMA (HER2-YVMA, SEQ ID NO: 2), sequence (P04626 with tags, fused parts or gaps INS775YVMA/P1170A limits assumed): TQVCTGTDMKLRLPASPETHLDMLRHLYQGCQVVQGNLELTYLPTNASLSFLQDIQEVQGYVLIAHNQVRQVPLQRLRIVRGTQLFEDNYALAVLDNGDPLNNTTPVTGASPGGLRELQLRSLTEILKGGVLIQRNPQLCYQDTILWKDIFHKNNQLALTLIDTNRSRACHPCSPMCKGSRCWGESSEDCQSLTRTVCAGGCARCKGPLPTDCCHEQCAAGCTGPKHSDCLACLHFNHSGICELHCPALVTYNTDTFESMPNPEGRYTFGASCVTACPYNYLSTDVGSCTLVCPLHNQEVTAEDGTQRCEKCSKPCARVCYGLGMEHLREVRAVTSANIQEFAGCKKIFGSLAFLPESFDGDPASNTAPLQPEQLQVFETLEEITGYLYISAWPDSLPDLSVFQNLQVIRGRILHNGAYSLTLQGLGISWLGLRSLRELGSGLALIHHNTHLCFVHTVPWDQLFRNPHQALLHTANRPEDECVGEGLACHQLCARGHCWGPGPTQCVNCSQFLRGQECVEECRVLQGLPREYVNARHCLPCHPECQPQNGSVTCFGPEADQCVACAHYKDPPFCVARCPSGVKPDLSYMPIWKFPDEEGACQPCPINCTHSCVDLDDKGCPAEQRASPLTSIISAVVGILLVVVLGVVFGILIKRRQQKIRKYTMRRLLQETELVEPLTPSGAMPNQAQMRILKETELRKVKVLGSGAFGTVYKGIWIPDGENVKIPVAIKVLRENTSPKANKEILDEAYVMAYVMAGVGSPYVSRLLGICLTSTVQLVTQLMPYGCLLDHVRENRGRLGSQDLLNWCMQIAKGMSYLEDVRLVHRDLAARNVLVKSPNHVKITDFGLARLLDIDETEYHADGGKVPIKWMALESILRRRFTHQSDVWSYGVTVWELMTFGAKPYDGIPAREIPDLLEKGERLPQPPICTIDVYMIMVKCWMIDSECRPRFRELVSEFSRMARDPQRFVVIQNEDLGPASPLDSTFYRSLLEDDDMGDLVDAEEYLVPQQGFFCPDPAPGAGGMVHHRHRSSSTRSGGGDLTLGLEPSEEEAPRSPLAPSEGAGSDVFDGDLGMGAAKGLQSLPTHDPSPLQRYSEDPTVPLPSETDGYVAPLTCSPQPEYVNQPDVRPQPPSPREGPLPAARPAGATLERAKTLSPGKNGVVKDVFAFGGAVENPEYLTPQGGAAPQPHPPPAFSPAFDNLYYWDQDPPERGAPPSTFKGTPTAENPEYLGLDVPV

SMILES | IC50 [1] [nM] | IC50 [2] [nM] | IC50 [3] [nM] | IC50 [4] [nM] | IC50 [5] [nM]
Cc1cc(Nc2ncnc3cnc(N4CCN5C(=O)COC[C@H]5C4)nc23)ccc1Oc1ccc2c(c1)ncn2C [Example 346] | 39.5 | 60.4 | ≥ 10000 | 20.3 | ≥ 5000
Cc1c(Oc2ccc3c(c2)ncn3C)ccc(Nc2ncnc3cnc(N4CC5CC5(O)C4)nc23)c1F (centres unmarked) [Example 347] | 79.6 | 110 | ≥ 10000 | 244 | ≥ 5000
Cc1cc(Nc2ncnc3cnc(N(C)[C@H]4CCCOC4)nc23)ccc1Oc1ccn2ncnc2c1 [Example 349] | 18.9 | 24 | 1290 | 116 | ≥ 5000
Clc1cc(Nc2ncnc3cnc(N4C[C@@H]5[C@H](C4)[C@H]4CC[C@@H]5O4)nc23)ccc1Oc1ccn2ncnc2c1 [Example 351] | 30.8 | 58.4 | ≥ 10000 | 150 | ≥ 5000
Cc1cc(Nc2ncnc3cnc(N4CCN[C@H](C)C4)nc23)ccc1Oc1ccn2ncnc2c1 [Example 352] | 37.5 | 131 | ≥ 10000 | 147 | ≥ 5000
Cc1cc(Nc2ncnc3cnc(N(C)C[C@@H]4COCCO4)nc23)ccc1Oc1ccc2c(c1)ncn2C [Example 353] | 48.2 | 47.5 | ≥ 10000 | 18.1 | ≥ 5000
FC(F)O[C@@H]1CCN(c2ncc3ncnc(Nc4ccc(Oc5ccn6ncnc6c5)c(Cl)c4)c3n2)C1 [Example 354] | 27.6 | 29 | ≥ 10000 | 72.2 | ≥ 5000
Cc1cc(Nc2ncnc3cnc(N4CCN[C@H](C(F)(F)F)C4)nc23)ccc1Oc1ccn2ncnc2c1 [Example 355] | 19.3 | 24.5 | 5040 | 182 | ≥ 5000
Clc1cc(Nc2ncnc3cnc(N4CC[C@@]5(CCOC5)C4)nc23)ccc1Oc1ccn2ncnc2c1 [Example 356] | 36.1 | 92.8 | ≥ 10000 | 270 | ≥ 5000
Cc1cc(Nc2ncnc3cnc(N4CC[C@H](C(F)F)C4)nc23)ccc1Oc1ccn2ncnc2c1 [Example 359] | 11.7 | 32.7 | ≥ 10000 | 278 | ≥ 5000
Cc1cc(Nc2ncnc3cnc(N4CC[C@H](OC(F)F)C4)nc23)ccc1Oc1ccn2ncnc2c1 [Example 361] | 26.4 | 39.2 | 7480 | 312 | ≥ 5000
Cc1cc(Nc2ncnc3cnc(NC4=NC(C)(C)CO4)nc23)ccc1Oc1ccn2ncnc2c1 [Example 362] | 26.3 | 32.1 | 3390 | 1260 | ≥ 5000
Cc1cc(Nc2ncnc3cnc(N4C[C@@H]5[C@H](C4)[C@@H]4CC[C@H]5O4)nc23)ccc1Oc1ccc2c(c1)ncn2C [Example 363] | 26.1 | 72.4 | ≥ 10000 | 26.2 | ≥ 5000
Cc1cc(Nc2ncnc3cnc(N(C)CC(C)(C)CO)nc23)ccc1Oc1ccc2c(c1)ncn2C [Example 364] | 32.8 | 29.5 | 2680 | 25.7 | ≥ 5000
Cc1cc(Nc2ncnc3cnc(N4CC[C@](C)(O)C4)nc23)ccc1Oc1ccn2ncnc2c1 [Example 365] | 38.4 | 81.8 | 7570 | 132 | ≥ 5000
Cc1cc(Nc2ncnc3cnc(N(C)[C@H]4C[C@H](O)C4)nc23)ccc1Oc1ccn2ncnc2c1 [Example 366] | 8.3 | 6.7 | 303 | 76.6 | ≥ 5000

SMILES | IC50 [1] [nM] | IC50 [2] [nM] | IC50 [3] [nM] | IC50 [4] [nM] | IC50 [5] [nM]
N#C[C@H]1CCN(c2ncc3ncnc(Nc4ccc(Oc5ccn6ncnc6c5)c(Cl)c4)c3n2)C1 [Example 367] | 16.5 | 64.7 | ≥ 10000 | 264 | ≥ 5000
CN(c1ncc2ncnc(Nc3ccc(Oc4ccn5ncnc5c4)c(Cl)c3)c2n1)[C@@H]1CCCOC1 [Example 368] | 3.6 | 4.8 | 303 | 17.4 | ≥ 5000
Cc1cc(Nc2ncnc3cnc(N4CCC45COC5)nc23)ccc1Oc1ccn2ncnc2c1 [Example 369] | 7.3 | 37.1 | 3870 | 151 | ≥ 5000
Cc1cc(Nc2ncnc3cnc(N4CC[C@H]4C(C)(C)O)nc23)ccc1Oc1ccn2ncnc2c1 [Example 370] | 57.9 | 129 | ≥ 10000 | 2500 | ≥ 5000
Cc1cc(Nc2ncnc3cnc(N4CCC[C@@H]4C(C)(C)O)nc23)ccc1Oc1ccc2c(c1)ncn2C [Example 371] | 67 | 492 | ≥ 10000 | 127 | ≥ 5000
Cc1cc(Nc2ncnc3cnc(N(C)CC(F)F)nc23)ccc1Oc1ccn2ncnc2c1 [Example 372] | 15.1 | 70.7 | 7310 | 153 | ≥ 5000
Cc1cc(Nc2ncnc3cnc(N4CC5(CCOC5)C4)nc23)ccc1Oc1ccn2ncnc2c1 [Example 373] | 81.6 | 307 | ≥ 10000 | 2480 | ≥ 5000
Cc1cc(Nc2ncnc3cnc(N4CC[C@]45CCOC5)nc23)ccc1Oc1ccn2ncnc2c1 [Example 374] | 14.3 | 14.2 | 1180 | 216 | ≥ 5000
Cc1cc(Nc2ncnc3cnc(N4CC[C@]5(CCO5)C4)nc23)ccc1Oc1ccc2c(c1)ncn2C [Example 375] | 22.8 | 34 | ≥ 10000 | 14.9 | ≥ 5000
Clc1cc(Nc2ncnc3cnc(N4CC[C@@H]5COC[C@H]54)nc23)ccc1Oc1ccn2ncnc2c1 [Example 376] | 13.3 | 11.7 | 1200 | 30.8 | ≥ 5000
Clc1cc(Nc2ncnc3cnc(N4CCC5COCC54)nc23)ccc1Oc1ccn2ncnc2c1 (centres unmarked) [Example 377] | 7.6 | 14.7 | 1410 | 58.2 | ≥ 5000
Cc1cc(Nc2ncnc3cnc(N4CCC4)nc23)ccc1Oc1ccn2ncnc2c1 [Example 379] | 25.7 | 82.1 | ≥ 10000 | 356 | ≥ 5000
Cc1cc(Nc2ncnc3cnc(N4C[C@@H]5[C@H](C4)[C@H]4CC[C@@H]5O4)nc23)ccc1Oc1ccc2c(c1)ncn2C [Example 380] | 46.4 | 64 | ≥ 10000 | 43.2 | ≥ 5000
Cc1cc(Nc2ncnc3cnc(N(C)[C@H]4CCOC4)nc23)ccc1Oc1ccn2ncnc2c1 [Example 381] | 15.4 | 9.4 | 5040 | 265 | ≥ 5000
Cc1cc(Nc2ncnc3cnc(N4CCOC5CC54)nc23)ccc1Oc1ccn2ncnc2c1 (centres unmarked) [Example 382] | 34.5 | 68.9 | 6010 | 397 | ≥ 5000
